Source: patent publication US11466031B2, “Polymorphic forms of bictegravir and its sodium salt” (Mylan Laboratories Limited, priority 2018, dated 2022)

Legend:
[1] = Storage stability: HPLC purity; assay type: physicochemical
[2] = Storage stability: polymorph integrity by PXRD; assay type: physicochemical
Experimental: The crystalline forms of bictegravir disclosed herein may be characterized by X-ray powder diffraction pattern (PXRD). Samples of each polymorph were analyzed on a BRUKER D-8 Discover powder diffractometer equipped with goniometer of θ/2θ configuration and Lynx Eye detector. The Cu-anode X-ray tube was operated at 40 kV and 30 mA. The experiments were conducted over the 2θ range of 2.0°-50.0°, 0.030° step size and 0.4 seconds step time. […] The samples were analyzed by PXRD for polymorph integrity.

[3] = at 25° C./60% RH, 6 months, listed as amorphous bictegravir sodium
[4] = at 40° C./75% RH, 6 months, listed as amorphous bictegravir sodium
[5] = at 25° C./60% RH, 6 months, listed as crystalline bictegravir Form M1
[6] = at 40° C./75% RH, 6 months, listed as crystalline bictegravir Form M1
[7] = at 25° C./60% RH, 6 months, listed as Form M2
[8] = at 40° C./75% RH, 6 months, listed as Form M2

HPLC purity ([1]; at 25° C./60% RH, 1 months) | HPLC purity ([1]; at 25° C./60% RH, 2 months) | HPLC purity ([1]; at 25° C./60% RH, 3 months) | HPLC purity ([1]; at 25° C./60% RH, 6 months) | HPLC purity ([1]; at 25° C./60% RH, Initial) | HPLC purity ([1]; at 40° C./75% RH, 1 months) | HPLC purity ([1]; at 40° C./75% RH, 2 months) | HPLC purity ([1]; at 40° C./75% RH, 3 months) | HPLC purity ([1]; at 40° C./75% RH, 6 months) | HPLC purity ([1]; at 40° C./75% RH, Initial) | PXRD ([2]; at 25° C./60% RH, 1 months) | PXRD ([2]; at 25° C./60% RH, 2 months) | PXRD ([2]; at 25° C./60% RH, 3 months) | PXRD ([2]; at 25° C./60% RH, 6 months) | PXRD ([2]; at 25° C./60% RH, Initial) | PXRD ([2]; at 40° C./75% RH, 1 months) | PXRD ([2]; at 40° C./75% RH, 2 months) | PXRD ([2]; at 40° C./75% RH, 3 months) | PXRD ([2]; at 40° C./75% RH, 6 months) | PXRD ([2]; at 40° C./75% RH, Initial) | Compound | further results
99.68 | 99.52 | 99.54 | 99.46 | 99.48 | 99.68 | 99.54 | 99.48 | 99.31 | 99.48 | Stable | Stable | Stable | Stable | Amorphous | Stable | Stable | Stable | Stable | Amorphous | O=C(NCc1c(F)cc(F)cc1F)c1cn2c(c([O-])c1=O)C(=O)N1[C@@H]3CC[C@@H](C3)O[C@H]1C2.[Na+] [Bictegravir Sodium Amorphous form, (2R,5S,13aR)-2,5-Methanopyrido[1′,2′:4,5]pyrazino[2,1-b][1,3]oxazepine-10-carboxamide, 2,3,4,5,7,9, 13,13a-octahydro-8-hydroxy-7,9-dioxo-N-[(2,4,6-trifluorophenyl)methyl]-, sodium salt (1:1)] | HPLC purity [1, 3]: no change; HPLC purity [1, 4]: no change; PXRD [2, 3]: no change; PXRD [2, 4]: no change
99.68 | 99.67 | 99.73 | 99.73 | 99.66 | 99.67 | 99.69 | 99.80 | 99.78 | 99.66 | Stable | Stable | Stable | Stable | Crystalline | Stable | Stable | Stable | Stable | Crystalline | O=C(NCc1c(F)cc(F)cc1F)c1cn2c(c(O)c1=O)C(=O)N1[C@H]3CC[C@H](C3)O[C@@H]1C2 [Bictegravir Form M1, bictegravir] | HPLC purity [1, 5]: no change; HPLC purity [1, 6]: no change; PXRD [2, 5]: no change; PXRD [2, 6]: no change
99.68 | 99.67 | 99.73 | 99.73 | 99.68 | 99.67 | 99.69 | 99.73 | 99.71 | 99.68 | Stable | Stable | Stable | Stable | Crystalline | Stable | Stable | Stable | Stable | Crystalline | O=C(NCc1c(F)cc(F)cc1F)c1cn2c(c(O)c1=O)C(=O)N1[C@H]3CC[C@H](C3)O[C@@H]1C2 [Bictegravir Form M2, bictegravir] | HPLC purity [1, 7]: no change; HPLC purity [1, 8]: no change; PXRD [2, 7]: no change; PXRD [2, 8]: no change
